Source: EPA's ToxValDB 9.5 (doi:10.2903/j.efsa.2010.1558)
≈ marks a conversion by molar mass, not a printed value.

Tests used:
Anas platyrhynchos = details: reproductive
Apis mellifera = details: acute, duration: 48 hours, mortality
Canidae = details: chronic; duration: 1 years; oral; Dog Other; body weight
Colinus virginianus = details: oral
Daphnia magna = details: chronic/long-term; duration: 21 days; mobility
Lepomis macrochirus = details: acute; duration: 96 hours; mortality
Pimephales promelas = details: chronic/long-term; duration: 33 days; growth
Rattus norvegicus = details: for NOAEL: reproduction developmental
Tagia sp. = details: acute; duration: 14 days; mortality
Typhlodromus pyri = details: acute; duration: 14 days; reproduction

For `N#CC(CCc1ccc(Cl)cc1)(Cn1cncn1)c1ccccc1` (centres undefined), the NOEC (Anas platyrhynchos) was 21 mg/kg-day, the LD50 (Apis mellifera; dermal) was greater than 5.5 µg/piece and the LD50 (Apis mellifera; oral, unspecified) was greater than 5.2 µg/piece. It also gave an NOAEL (Canidae) of 0.62 mg/kg-day, an LD50 (Colinus virginianus; acute, mortality) greater than 2150 mg/kg-day and an NOEL (Colinus virginianus; short-term, diet, food consumption) of 111 mg/kg-day. It also gave an NOEC (Daphnia magna) of 0.078 mg/L, an LC50 (Lepomis macrochirus) of 0.68 µg/mL (≈ 2.02 µM) and an NOEC (Pimephales promelas) of 0.023 mg/L. The LD50 (Rattus norvegicus; acute, oral, mortality) was greater than 5000 mg/kg-day, the NOAEL (Rattus norvegicus; body weight) was 30 mg/kg-day and the NOAEL (Rattus norvegicus; reproduction) was 5 mg/kg-day. The LC50 (Tagia sp.) was greater than 100 mg/kg and the LEL (Typhlodromus pyri) was 63 g/ha.
